Literature values, collected in US20050267197A1 (priority 2004, published 2005).

How the values were obtained:
[1] = in vivo
[2] = in vivo; remark: listed apart in the source

For `CC(C)c1nc(N(C)S(C)(=O)=O)nc(-c2ccc(F)cc2)c1/C=C/[C@@H](O)C[C@@H](O)CC(=O)O` [Crestor®, rosuvastatin], the “cases of serious side effects cited” value (cited by consumer advocacy group, March 2004) is given as 16 cases.

In the case of `O=C(O)c1cccnc1` [Niacin], the “increase of blood levels of HDL cholesterol” value [1] is given as “up to 35%”, the “reduction of total cholesterol” value [1] is given as “up to 15%” and the “reduction of triglyceride levels” value [1] is given as “up to 30%”. The “patients affected by flushing (redness) of the face and neck” value [2] was “more than three quarters of patients” and the “patients discontinuing treatment because of adverse effects” value [2] was “more than 40%”.

In the case of `COCc1c(C(C)C)nc(C(C)C)c(/C=C/[C@@H](O)C[C@@H](O)CC(=O)O)c1-c1ccc(F)cc1` [Baycol®, cervastatin], the “deaths linked to the drug” value (at recommended initial dose (0.4 mg/day) as well as highest dose (0.8 mg/day)) is given as 31 deaths.
